Data taken from the supplement of paper PMC11061612.

Assays:
[1] = compound: COc1cccc2c1C(=O)c1c(O)c3c(c(O)c1C2=O)C[C@@](O)(C(=O)CO)C[C@@H]3O[C@H]1C[C@H](N)[C@H](O)[C@H](C)O1 [Doxorubicin]; details: max 1 µM
Outline: (§1)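 Plates with 1536 wells received cancer cell lines in 7.5 μl of DMEM/F12 or RPMI containing 10% FBS. After 24 hours at 37°C and 5% CO2, cells were dosed for 72 hours with final DMSO typically 0.2%, and viability was read by CellTiter-Glo 2.0 luminescence scaled between blank-well and DMSO-well means. The single-agent IC50 was taken from a logistic fit of the dose responses made with a non-linear mixed effects model, that logistic curve having two parameters.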

[2] = compound: C1CN(CCC1(C(=O)N[C@@H](CCO)C2=CC=C(C=C2)Cl)N)C3=NC=NC4=C3C=CN4 [AZD5363]; details: max 10 µM
Outline: as §1

[3] = compound: CS(=O)(=O)CCNCc1ccc(-c2ccc3ncnc(Nc4ccc(OCc5cccc(F)c5)c(Cl)c4)c3c2)o1 [Lapatinib]; details: max 10 µM
Outline: as §1

[4] = compound: C=CCn1c(=O)c2cnc(Nc3ccc(N4CCN(C)CC4)cc3)nc2n1-c1cccc(C(C)(C)O)n1 [AZD1775]; details: max 3 µM
Outline: as §1

[5] = compound: CC1=C(C(=CC=C1)Cl)NC(=O)C2=CN=C(S2)NC3=CC(=NC(=N3)C)N4CCN(CC4)CCO [Dasatinib]; details: max 2 µM
Outline: as §1

[6] = compound: COc1cccc(OCCCN)c1-c1cc(Nc2cnc(C#N)cn2)n[nH]1 [Prexasertib]; details: max 1 µM
Outline: as §1

[7] = compound: CC(=O)Nc1cccc(-n2c(=O)n(C3CC3)c(=O)c3c(Nc4ccc(I)cc4F)n(C)c(=O)c(C)c32)c1 [Trametinib]; details: max 1 µM
Outline: as §1

[8] = compound: COc1cc(Nc2ncc3c(n2)-c2ccc(Cl)cc2C(c2c(F)cccc2OC)=NC3)ccc1C(=O)O [Alisertib]; details: max 10 µM
Outline: as §1

[9] = compound: O=C(Nc1ccc2[nH]nc(-c3ccncc3)c2c1)[C@@H]1CCN(CC(=O)N2CCN(c3ccc(-c4ncccn4)cc3)CC2)C1; details: max 5 µM
Outline: as §1

[10] = compound: Cc1cc2ncnn2cc1Nc1ncc2c(n1)n(C1CCOCC1)c(=O)n2C [AZD7648]; details: max 10 µM
Outline: as §1

[11] = compound: CN(CC[C@H](CSC1=CC=CC=C1)NC2=C(C=C(C=C2)S(=O)(=O)NC(=O)C3=CC=C(C=C3)N4CCC(CC4)[C@H](C5=CC=CC=C5C6=CC=C(C=C6)Cl)O)S(=O)(=O)C(F)(F)F)CCO [AZD4320]; details: max 1 µM
Outline: as §1

[12] = compound: C1CC(C1)(C(=O)[O-])C(=O)[O-].N.N.[Pt+2] [Carboplatin]; details: max 10 µM
Outline: as §1

[13] = compound: Cn1cnc2c(F)c(Nc3ccc(Br)cc3Cl)c(C(=O)NOCCO)cc21 [Selumetinib]; details: max 10 µM
Outline: as §1

[14] = compound: CC1=CN2[C@@H](C1)C=NC3=CC(=C(C=C3C2=O)OC)OCCCCCOC4=C(C=C5C(=C4)N=C[C@@H]6CC(=CN6C5=O)C)OC [SG3199]; details: max 0.001 µM
Outline: as §1

[15] = compound: CCc1c2c(nc3ccc(O)cc13)-c1cc3c(c(=O)n1C2)COC(=O)[C@]3(O)CC [SN-38]; details: max 0.3 µM
Outline: as §1

[16] = compound: CC(C)n1c(=O)n(C)c2cnc3cc(F)c(-c4ccc(OCCCN5CCCCC5)nc4)cc3c21 [AZD1390]; details: max 0.3 µM
Outline: as §1

[17] = compound: O=c1[nH]cc(F)c(=O)[nH]1 [5-Fluorouracil]; details: max 20 µM
Outline: as §1

[18] = compound: Cc1nc(-c2cn3c(n2)-c2ccc(-c4cnn(C(C)(C)C(N)=O)c4)cc2OCC3)n(C(C)C)n1 [Taselisib]; details: max 10 µM
Outline: as §1

[19] = compound: COc1cc([C@@H]2c3cc4c(cc3[C@@H](O[C@@H]3O[C@@H]5CO[C@@H](C)O[C@H]5[C@H](O)[C@H]3O)[C@H]3COC(=O)[C@H]23)OCO4)cc(OC)c1O [Etoposide]; details: max 10 µM
Outline: as §1

[20] = compound: O=C(c1cc(Cc2n[nH]c(=O)c3ccccc23)ccc1F)N1CCN(C(=O)C2CC2)CC1 [Olaparib]; details: max 10 µM
Outline: as §1

[21] = compound: C[C@@H](Oc1cc(-c2cnn(C3CCNCC3)c2)cnc1N)c1c(Cl)ccc(F)c1Cl [Crizotinib]; details: max 10 µM
Outline: as §1

[22] = compound: COc1cc2ncnc(Nc3ccc(F)c(Cl)c3)c2cc1OCCCN1CCOCC1 [Gefitinib]; details: max 10 µM
Outline: as §1

[23] = compound: N#Cc1cnc(Nc2cc(NC[C@H]3CNCCO3)c(C(F)(F)F)cn2)cn1 [SRA737]; details: max 10 µM
Outline: as §1

[24] = compound: C[C@@H](Nc1cc(F)cc(F)c1)c1cc(C(=O)N(C)C)cc2c(=O)cc(N3CCOCC3)oc12 [AZD8186]; details: max 10 µM
Outline: as §1

[25] = compound: CC1(C)CCC(CN2CCN(c3ccc(C(=O)NS(=O)(=O)c4ccc(NCC5CCOCC5)c([N+](=O)[O-])c4)c(Oc4cnc5[nH]ccc5c4)c3)CC2)=C(c2ccc(Cl)cc2)C1 [Venetoclax]; details: max 1 µM
Outline: as §1

[26] = compound: CN(C)CCCOc1ccc(-c2ccc3ncc4c(c3c2)n(C2CCOCC2)c(=O)n4C)cn1 [AZD0156]; details: max 3 µM
Outline: as §1

[27] = compound: Nc1ccn([C@@H]2O[C@H](CO)[C@@H](O)C2(F)F)c(=O)n1 [Gemcitabine]; details: max 0.3 µM
Outline: as §1

[28] = compound: C[C@@H]1COCCN1C2=NC(=NC(=C2)C3(CC3)[S@](=N)(=O)C)C4=C5C=CNC5=NC=C4 [AZD6738]; details: max 10 µM
Outline: as §1

[29] = compound: C[C@@H](c1ccc2nccn2c1)n1nnc2ncc(-c3cnn(C)c3)nc21 [Savolitinib]; details: max 1 µM
Outline: as §1

[30] = compound: CC(=O)O[C@H]1C(=O)[C@@]2(C)[C@H]([C@H](OC(=O)c3ccccc3)[C@]3(O)C[C@H](OC(=O)[C@H](O)[C@@H](NC(=O)c4ccccc4)c4ccccc4)C(C)=C1C3(C)C)[C@]1(OC(C)=O)CO[C@@H]1C[C@@H]2O [Paclitaxel]; details: max 3 µM
Outline: as §1

[31] = compound: COc1nnc2ccc(N3CCC(c4ccc(OCCN5CCN(C)C(=O)[C@H]5C)cc4)CC3)nn12 [AZD5153]; details: max 1 µM
Outline: as §1

[32] = compound: NC1(c2ccc(-c3nc4ccn5c(=O)[nH]nc5c4cc3-c3ccccc3)cc2)CCC1 [MK-2206]; details: max 10 µM
Outline: as §1

[33] = compound: CC(=O)c1c(C)c2cnc(Nc3ccc(N4CCNCC4)cn3)nc2n(C2CCCC2)c1=O [Palbociclib]; details: max 10 µM
Outline: as §1

[34] = compound: CCN(CCO)CCCOc1ccc2c(Nc3cc(CC(=O)Nc4cccc(F)c4)[nH]n3)ncnc2c1 [AZD2811]; details: max 1 µM
Outline: as §1

[35] = compound: Cc1c2c(nn1C)CSCc1cc(n(C)n1)CSc1cc(c3ccccc3c1)OCCCc1c(C(=O)O)n(C)c3c-2c(Cl)ccc13 [AZD5991]; details: max 1 µM
Outline: as §1

Cell Line	IC50, cell viability 72 h [1] [nM]	IC50, cell viability 72 h [2] [µM]	IC50, cell viability 72 h [3] [µM]	IC50, cell viability 72 h [4] [nM]	IC50, cell viability 72 h [5] [nM]	IC50, cell viability 72 h [6] [nM]	IC50, cell viability 72 h [7] [nM]	IC50, cell viability 72 h [8] [µM]	IC50, cell viability 72 h [9] [µM]	IC50, cell viability 72 h [10] [µM]	IC50, cell viability 72 h [11] [nM]	IC50, cell viability 72 h [12] [µM]	IC50, cell viability 72 h [13] [µM]	IC50, cell viability 72 h [14] [nM]	IC50, cell viability 72 h [15] [nM]	IC50, cell viability 72 h [16] [nM]	IC50, cell viability 72 h [17] [µM]	IC50, cell viability 72 h [18] [nM]	IC50, cell viability 72 h [19] [nM]	IC50, cell viability 72 h [20] [µM]	IC50, cell viability 72 h [21] [µM]	IC50, cell viability 72 h [22] [µM]	IC50, cell viability 72 h [23] [µM]	IC50, cell viability 72 h [24] [µM]	IC50, cell viability 72 h [25] [nM]	IC50, cell viability 72 h [26] [nM]	IC50, cell viability 72 h [27] [nM]	IC50, cell viability 72 h [28] [µM]	IC50, cell viability 72 h [29] [nM]	IC50, cell viability 72 h [30] [nM]	IC50, cell viability 72 h [31] [nM]	IC50, cell viability 72 h [32] [µM]	IC50, cell viability 72 h [33] [µM]	IC50, cell viability 72 h [34] [nM]	IC50, cell viability 72 h [35] [nM]
PCI-30 (Head and Neck Carcinoma)	> 1000	> 10	> 10	> 3000	> 2000	74	> 1000	> 10	> 5	> 10	> 1000	> 10	> 10	> 1	110	> 300	> 20	> 10000	> 10000	> 10	> 10	> 10	> 10	> 10	> 1000	> 3000	> 300	> 10	> 1000	> 3000	> 1000	> 10	> 10	> 1000	> 1000
SUP-T1 (T-Lymphoblastic Leukemia)	145	3.6	> 10	272	> 2000	21.8	> 1000	1.59	> 5	> 10	> 1000	> 10	> 10	> 1	3.19	> 300	> 20	1730	805	> 10	2.73	> 10	7.67	> 10	> 1000	> 3000	16.7	3.28	> 1000	13.6	117	7.71	2.36	> 1000	> 1000
SW1271 (Small Cell Lung Carcinoma)	> 1000	> 10	> 10	1970	> 2000	137	614	> 10	> 5	> 10	> 1000	> 10	> 10	> 1	143	> 300	> 20	> 10000	> 10000	> 10	> 10	> 10	> 10	> 10	> 1000	> 3000	> 300	> 10	> 1000	630	947	> 10	> 10	> 1000	> 1000
CAL-54 (Kidney Carcinoma)	936	9.91	7.99	452	33.6	38.5	> 1000	4.71	> 5	> 10	> 1000	> 10	> 10	> 1	15.6	> 300	> 20	2280	> 10000	> 10	> 10	5.89	> 10	0.873	> 1000	> 3000	23.4	5.49	> 1000	399	102	3.36	4.13	> 1000	> 1000
LU-139 (Small Cell Lung Carcinoma)	513	> 10	> 10	1210	> 2000	413	> 1000	5.74	> 5	> 10	47.4	> 10	> 10	> 1	39.2	> 300	> 20	> 10000	2430	> 10	9.53	> 10	> 10	> 10	> 1000	> 3000	29.5	> 10	> 1000	124	103	> 10	> 10	> 1000	> 1000
